These results are taken from US20100016275A1, “NOVEL COMPOUND 395” (priority 2008, published 2010).

Data set [1] concerns human hepatocytes. The experiment in a line: Human hepatic intrinsic clearance (CLint) assay in human hepatocytes. The data set is classed as in vitro ADME. As to conditions: human hepatocytes, protein free suspension buffer, pH 7.4, 37° C. The source says:
The hepatic metabolic component of human clearance is predicted from scaled in vitro intrinsic clearance (CLint) data from human hepatocytes (see Chem Biol Interact. 2007, 168(1), 2-15) and from the extent of human blood binding, primarily due to plasma protein binding. The well stirred model of the liver is a model for predicting blood clearance in the liver from intrinsic clearance (CLint) determined using hepatocytes. (see Drug Metab Dispos. 2005, 33(9), 1304-11) The model is usually written as:
Human Hepatic Intrinsic Clearance (CLint) Assay
For the majority of drugs, a large component of their plasma clearance is contributed by hepatic metabolism. Intrinsic clearance (CLint) is a measure of the potential of a compound to undergo metabolism and can be related to hepatic clearance in vivo from a consideration of plasma protein binding and liver blood flow. Therefore, CLint may be used as an index of the relative metabolic stability of compounds within a project and compared with other external probe substrates. Furthermore, the measurement of CLint in vitro within a research project, where hepatic metabolic clearance is known to be an issue, may be a useful means of understanding the different pharmacokinetic behaviour of the compounds in vivo.
This following description outlines a method for estimating intrinsic clearance (CLint) from human hepatocyte incubations using suspension buffer containing no HSA (human serum albumin) and maintaining physiological conditions of pH 7.4.
Hepatocytes were prepared by a two-step in situ collagenase perfusion method of a portion of the human liver, suspended in protein free buffer (see below) and stored on ice, prior to incubation.
This method is based on the procedure of Seglen (Preparation of rat liver cells. I. Effect of Ca^2+ on enzymatic dispersion of isolated, perfused liver. Exptl. Cell Res., 1972, 74, p450 and preparation of isolated rat liver cells. Methods Cell Biol., 1976, 13, p 29) which itself was developed from the one step procedure of Berry and Friend (High-yield preparation of isolated rat liver parenchymal cells. J. Cell Biol., 1969, 43, p 506).
Suspension medium: 2.34 g Na HEPES, 2.0 g HSA fraction V, 0.4 g D-fructose, DMEM (1 L powder equivalent, Sigma; w/1 g.1^−1 glucose, w/Na pyruvate, w/o NaHCO3, w/o phenol red), made up to 1 L with Milli-Q water, pH to 7.4 with 1 M HCl. (Protein free suspension buffer is made omitting the 2.0 g HSA fraction V)
The capsule of a liver which has been perfused with digestion medium was cut open and the cells gently teased out into the medium. The cells were then passed through a mesh (approximately 250 μM) into a beaker containing 50 ml suspension medium. The mesh was rinsed through into the beaker with further suspension buffer to a final volume of 100 ml. The suspension was divided between two plastic 50 mL centrifuge tubes (pre-cooled on ice) and centrifuged at 50×g for 2 min at 4° C. The supernatants were decanted and the pellets re-suspended in protein free suspension buffer to the original volume. The centrifugation step was repeated and each pellet re-suspended in approximately 10 ml protein free suspension buffer. The suspensions were combined and the volume made up to 50 mL with protein free suspension buffer.
An aliquot of cell suspension (0.2 mL) was diluted with 0.2 ml protein free suspension buffer. To the diluted cells was added 0.2 mL trypan blue solution (0.4% w/v) followed by gentle mixing. After 1 min, a pasteur pipette was used to withdraw a sample and fill an Improved Neubauer Counting Chamber by capillary action. The cells were then counted (central square only) using an inverted microscope, viable cells being able to exclude the dye and non-viable cells being stained. The percentage of viable cells in the preparation was calculated thus: […]

On to `Cc1ccc(CSc2nc(N[C@H](C)CO)cc(NS(=O)(=O)N3CCC3)n2)c(F)c1C` [Example 42], for which the “Human hepatocyte Intrinsic-clearance assay CLint” value in data set [1] is 17 μL/min/10^6 cells.

For orientation: melting point means the temperature of the solid-liquid transition. Compound `C[C@@H](Nc1cc(NS(=O)(=O)N2CCC2)nc(SCc2cccc(F)c2F)n1)[C@@H](O)CO` [Example 1, N-(2-[(2,3-difluorobenzyl)thio]-6-{[(1R,2R)-2,3-dihydroxy-1-methylpropyl]amino}pyrimidin-4-yl)azetidine-1-sulfonamide] yielded a melting point of 116 to 116.5 °C.
